Measurements: patent publication US20240336654A1, “ANTIMICROBIAL PEPTIDOMIMETICS” (SPEXIS AG, priority 2021, published 2024)
Where a SMILES comes first, the peptide text is derived from it. Bridges are numbered along the chain shown (N, C = ends). [ ]: non-standard residue; d: D form. Pro(trans-4-F) = O=C(O)[C@@H]1C[C@@H](F)CN1; Pro(cis-4-F) = O=C(O)[C@@H]1C[C@H](F)CN1; Pro(4,4-F2) = O=C(O)[C@@H]1CC(F)(F)CN1; Hyp = O=C(O)[C@@H]1C[C@@H](O)CN1; Pen = CC(C)(S)[C@H](N)C(=O)O; Tle = CC(C)(C)[C@H](N)C(=O)O; dDab = NCC[C@@H](N)C(=O)O; Dab = NCC[C@H](N)C(=O)O; Abu = CC[C@H](N)C(=O)O

Legend:
Format in all cases: cell-based
[1] = system: Escherichia coli MCR-1 Af 45; conditions: MCR-1 Af 45
Experimental: (§1) Lyophilized peptides were weighed on a Microbalance (Mettler MT5) and dissolved in sterile water to a final concentration of 1 mg/mL. Stock solutions were kept at +4° C., light protected.
(§2) The selective antimicrobial activities of the peptides were determined in 96-well plates (Greiner, polystyrene) by the standard CLSI broth microdilution method (Clinical and Laboratory Standards Institute. Methods for Dilution Antimicrobial Susceptibility Tests for Bacteria That Grow Aerobically; Approved Standard-Ninth Edition. CLSI document M07-A9 (ISBN 1-56238-783-9 [Print]; ISBN 1-56238-784-7 [Electronic]). Clinical and Laboratory Standards Institute, 950 West Valley Road, Suite 2500, Wayne, Pennsylvania 19087, USA, 2012) with slight modifications.
(§3) Colonies of the microorganisms were diluted in saline (0.85%, NaCl) and adjusted using a McFarland reader (bioMérieux SA, Marcy-l'Etoile, France) to 0.5 McFarland standard. Subsequently, the bacterial suspension was diluted in Mueller-Hinton II (MHII, cation adjusted) broth to give approximately 5×10^5 colony forming units (CFU/mL).
(§4) Inocula of the microorganisms were diluted into Mueller-Hinton II (MH, cation adjusted) broth and compared with a 0.5 McFarland standard to give appr. 10^6 colony forming units (CFU)/mL. Aliquots (90 μl) of inoculate were added to 10 μl of water+P-80 (Polysorbate 80, 0.002% final concentration) containing the peptide in serial two-fold dilutions at 10 fold final concentration. The following microorganisms were used to determine antibiotic selectivity of the peptides: Escherichia coli ATCC 25922, Escherichia coli MCR-1 Af 45 and Klebsiella pneumoniae SSI3010. Antimicrobial activities of the peptides were expressed as the minimal inhibitory concentration (MIC) in μg/mL at which no visible growth was observed after 18-20 hours of incubation at 35° C.

[2] = system: Klebsiella pneumoniae SSI3010; conditions: SSI3010
Experimental: as §1, §2, §3, §4

[3] = system: Escherichia coli ATCC 25922; conditions: ATCC 25922
Experimental: as §1, §2, §3, §4

[4] = system: human red blood cells (hRBC); conditions: red cells of human, 1 h, 200 μg/mL
Experimental: Lyophilized peptides were weighed on a Microbalance (Mettler MT5) and dissolved in sterile water to a final concentration of 1 mg/mL. Stock solutions were kept at +4° C., light protected. The peptides were tested for their hemolytic activity against human red blood cells (hRBC). Fresh hRBC were washed three times with phosphate buffered saline (PBS) and centrifuged for 5 min at 3000×g. Compounds (200 μg/mL) were incubated with 20% hRBC (v/v) for 1 h at 37° C. and shaking at 300 rpm. A value of 0% and 100% cell lyses, respectively, was determined by incubation of hRBC in the presence of PBS and 2.5% Triton X-100 in H2O, respectively. The samples were centrifuged, the supernatants were 8-fold diluted in PBS buffer and the optical densities (OD) were measured at 540 nm. The 100% lyses value (OD540H2O) gave an OD540 of approximately 0.5-1.0. Percent hemolysis was calculated as follows: (OD540peptide/OD540H2O)×100%.

## CC[C@H](C)[C@H](NC(=O)[C@@H]1C[C@@H](O)CN1C(=O)[C@@H](N)C(C)C)C(=O)N[C@@H]1C(=O)N[C@@H](Cc2ccc(O)cc2)C(=O)N[C@@H](CO)C(=O)N[C@@H](CC(N)=O)C(=O)N[C@@H](CCCNC(=N)N)C(=O)N[C@@H](CCN)C(=O)N[C@@H]([C@@H](C)O)C(=O)N[C@H](CCN)C(=O)N[C@@H](CCCCN)C(=O)N[C@@H](CCN)C(=O)N[C@@H](CCN)C(=O)N[C@H](C(=O)N[C@@H](Cc2ccc(O)cc2)C(=O)O)CSSC1(C)C [Example 1, Val-Hyp-Ile-Pen-Tyr-Ser-Asn-Arg-Dab-Thr-^DDab-Lys-Dab-Dab-Cys-Tyr] (H-V[Hyp]I[Pen]YSNR[Dab]T[dDab]K[Dab][Dab]CY-OH; disulfide 4-15)
[1]
  Escherichia coli MCR-1 Af45 MIC: 0.03125 µg/mL
[2]
  Klebsiella pneumoniae SSI3010 MIC: 0.25 µg/mL
[3]
  Escherichia coli ATCC 25922 MIC: 0.125 µg/mL
[4]
  Hemolysis at 0.2 g/L: <1%

## CC[C@H](N)C(=O)N1C[C@H](O)C[C@H]1C(=O)N[C@H](C(=O)N[C@@H]1C(=O)N[C@@H](Cc2ccc(O)cc2)C(=O)N[C@@H](CO)C(=O)N[C@@H](CC(N)=O)C(=O)N[C@@H](CCCNC(=N)N)C(=O)N[C@@H](CCN)C(=O)N[C@@H]([C@@H](C)O)C(=O)N[C@H](CCN)C(=O)N[C@@H](CCCCN)C(=O)N[C@@H](CCN)C(=O)N[C@@H](CCN)C(=O)N[C@H](C(=O)N[C@@H](Cc2ccc(O)cc2)C(=O)O)CSSC1(C)C)[C@@H](C)CC [Example 2, Abu-Hyp-Ile-Pen-Tyr-Ser-Asn-Arg-Dab-Thr-^DDab-Lys-Dab-Dab-Cys-Tyr] (H-[Abu][Hyp]I[Pen]YSNR[Dab]T[dDab]K[Dab][Dab]CY-OH; disulfide 4-15)
[1]
  Escherichia coli MCR-1 Af45 MIC: 0.125 µg/mL
[2]
  Klebsiella pneumoniae SSI3010 MIC: 0.25 µg/mL
[3]
  Escherichia coli ATCC 25922 MIC: 0.25 µg/mL
[4]
  Hemolysis at 0.2 g/L: <1%

## CC[C@H](C)[C@H](NC(=O)[C@@H]1C[C@@H](O)CN1C(=O)[C@@H](N)C(C)(C)C)C(=O)N[C@@H]1C(=O)N[C@@H](Cc2ccc(O)cc2)C(=O)N[C@@H](CO)C(=O)N[C@@H](CC(N)=O)C(=O)N[C@@H](CCCNC(=N)N)C(=O)N[C@@H](CCN)C(=O)N[C@@H]([C@@H](C)O)C(=O)N[C@H](CCN)C(=O)N[C@@H](CCCCN)C(=O)N[C@@H](CCN)C(=O)N[C@@H](CCN)C(=O)N[C@H](C(=O)N[C@@H](Cc2ccc(O)cc2)C(=O)O)CSSC1(C)C [Example 3, tBuGly-Hyp-Ile-Pen-Tyr-Ser-Asn-Arg-Dab-Thr-^DDab-Lys-Dab-Dab-Cys-Tyr] (H-[Tle][Hyp]I[Pen]YSNR[Dab]T[dDab]K[Dab][Dab]CY-OH; disulfide 4-15)
[1]
  Escherichia coli MCR-1 Af45 MIC: 0.125 µg/mL
[2]
  Klebsiella pneumoniae SSI3010 MIC: 0.25 µg/mL
[3]
  Escherichia coli ATCC 25922 MIC: 0.125 µg/mL
[4]
  Hemolysis at 0.2 g/L: <1%

## CC[C@H](C)[C@H](NC(=O)[C@@H]1CCCN1C(=O)[C@@H](N)C(C)C)C(=O)N[C@@H]1C(=O)N[C@@H](Cc2ccc(O)cc2)C(=O)N[C@@H](CO)C(=O)N[C@@H](CC(N)=O)C(=O)N[C@@H](CCCNC(=N)N)C(=O)N[C@@H](CCN)C(=O)N[C@@H]([C@@H](C)O)C(=O)N[C@H](CCN)C(=O)N[C@@H](CCCCN)C(=O)N[C@@H](CCN)C(=O)N[C@@H](CCN)C(=O)N[C@H](C(=O)N[C@@H](Cc2ccc(O)cc2)C(=O)O)CSSC1(C)C [Example 4, Val-Pro-Ile-Pen-Tyr-Ser-Asn-Arg-Dab-Thr-^DDab-Lys-Dab-Dab-Cys-Tyr] (H-VPI[Pen]YSNR[Dab]T[dDab]K[Dab][Dab]CY-OH; disulfide 4-15)
[1]
  Escherichia coli MCR-1 Af45 MIC: 0.0625 µg/mL
[2]
  Klebsiella pneumoniae SSI3010 MIC: 0.125 µg/mL
[3]
  Escherichia coli ATCC 25922 MIC: 0.0625 µg/mL
[4]
  Hemolysis at 0.2 g/L: <1%

## CC[C@H](C)[C@H](NC(=O)[C@@H]1CCCN1C(=O)[C@@H](N)C(C)C)C(=O)N[C@@H]1C(=O)N[C@@H](Cc2ccc(O)cc2)C(=O)N[C@@H]([C@@H](C)O)C(=O)N[C@@H](CC(N)=O)C(=O)N[C@@H](CCCNC(=N)N)C(=O)N[C@@H](CCN)C(=O)N[C@@H]([C@@H](C)O)C(=O)N[C@H](CCN)C(=O)N[C@@H](CCCCN)C(=O)N[C@@H](CCN)C(=O)N[C@@H](CCN)C(=O)N[C@H](C(=O)N[C@@H](Cc2ccc(O)cc2)C(=O)O)CSSC1(C)C [Example 5, Val-Pro-Ile-Pen-Tyr-Thr-Asn-Arg-Dab-Thr-^DDab-Lys-Dab-Dab-Cys-Tyr] (H-VPI[Pen]YTNR[Dab]T[dDab]K[Dab][Dab]CY-OH; disulfide 4-15)
[1]
  Escherichia coli MCR-1 Af45 MIC: 0.0625 µg/mL
[2]
  Klebsiella pneumoniae SSI3010 MIC: 0.25 µg/mL
[3]
  Escherichia coli ATCC 25922 MIC: 0.125 µg/mL
[4]
  Hemolysis at 0.2 g/L: <1%

## CC[C@H](C)[C@H](NC(=O)[C@@H]1C[C@@H](OC)CN1C(=O)[C@@H](N)C(C)C)C(=O)N[C@@H]1C(=O)N[C@@H](Cc2ccc(O)cc2)C(=O)N[C@@H]([C@@H](C)O)C(=O)N[C@@H](CC(N)=O)C(=O)N[C@@H](CCCNC(=N)N)C(=O)N[C@@H](CCN)C(=O)N[C@@H]([C@@H](C)O)C(=O)N[C@H](CCN)C(=O)N[C@@H](CCCCN)C(=O)N[C@@H](CCN)C(=O)N[C@@H](CCN)C(=O)N[C@H](C(=O)N[C@@H](Cc2ccc(O)cc2)C(=O)O)CSSC1(C)C [Example 6, Val-Pro((4R)OMe)-Ile-Pen-Tyr-Thr-Asn-Arg-Dab-Thr-^DDab-Lys-Dab-Dab-Cys-Tyr] (H-V[Hyp](Me)I[Pen]YTNR[Dab]T[dDab]K[Dab][Dab]CY-OH; disulfide 4-15)
[1]
  Escherichia coli MCR-1 Af45 MIC: 0.125 µg/mL
[2]
  Klebsiella pneumoniae SSI3010 MIC: 0.25 µg/mL
[3]
  Escherichia coli ATCC 25922 MIC: 0.125 µg/mL
[4]
  Hemolysis at 0.2 g/L: <1%

## CC[C@H](C)[C@H](NC(=O)[C@@H]1C[C@H](F)CN1C(=O)[C@@H](N)C(C)C)C(=O)N[C@@H]1C(=O)N[C@@H](Cc2ccc(O)cc2)C(=O)N[C@@H]([C@@H](C)O)C(=O)N[C@@H](CC(N)=O)C(=O)N[C@@H](CCCNC(=N)N)C(=O)N[C@@H](CCN)C(=O)N[C@@H]([C@@H](C)O)C(=O)N[C@H](CCN)C(=O)N[C@@H](CCCCN)C(=O)N[C@@H](CCN)C(=O)N[C@@H](CCN)C(=O)N[C@H](C(=O)N[C@@H](Cc2ccc(O)cc2)C(=O)O)CSSC1(C)C [Example 7, Val-Pro((4S)F)-Ile-Pen-Tyr-Thr-Asn-Arg-Dab-Thr-^DDab-Lys-Dab-Dab-Cys-Tyr] (H-V[Pro(cis-4-F)]I[Pen]YTNR[Dab]T[dDab]K[Dab][Dab]CY-OH; disulfide 4-15)
[1]
  Escherichia coli MCR-1 Af45 MIC: 0.125 µg/mL
[2]
  Klebsiella pneumoniae SSI3010 MIC: 0.25 µg/mL
[3]
  Escherichia coli ATCC 25922 MIC: 0.125 µg/mL
[4]
  Hemolysis at 0.2 g/L: <1%

## CC[C@H](C)[C@H](NC(=O)[C@@H]1C[C@@H](F)CN1C(=O)[C@@H](N)C(C)C)C(=O)N[C@@H]1C(=O)N[C@@H](Cc2ccc(O)cc2)C(=O)N[C@@H]([C@@H](C)O)C(=O)N[C@@H](CC(N)=O)C(=O)N[C@@H](CCCNC(=N)N)C(=O)N[C@@H](CCN)C(=O)N[C@@H]([C@@H](C)O)C(=O)N[C@H](CCN)C(=O)N[C@@H](CCCCN)C(=O)N[C@@H](CCN)C(=O)N[C@@H](CCN)C(=O)N[C@H](C(=O)N[C@@H](Cc2ccc(O)cc2)C(=O)O)CSSC1(C)C [Example 8, Val-Pro((4R)F)-Ile-Pen-Tyr-Thr-Asn-Arg-Dab-Thr-^DDab-Lys-Dab-Dab-Cys-Tyr] (H-V[Pro(trans-4-F)]I[Pen]YTNR[Dab]T[dDab]K[Dab][Dab]CY-OH; disulfide 4-15)
[1]
  Escherichia coli MCR-1 Af45 MIC: 0.0625 µg/mL
[2]
  Klebsiella pneumoniae SSI3010 MIC: 0.25 µg/mL
[3]
  Escherichia coli ATCC 25922 MIC: 0.125 µg/mL
[4]
  Hemolysis at 0.2 g/L: <1%

## CC[C@H](C)[C@H](NC(=O)[C@@H]1CC(F)(F)CN1C(=O)[C@@H](N)C(C)C)C(=O)N[C@@H]1C(=O)N[C@@H](Cc2ccc(O)cc2)C(=O)N[C@@H]([C@@H](C)O)C(=O)N[C@@H](CC(N)=O)C(=O)N[C@@H](CCCNC(=N)N)C(=O)N[C@@H](CCN)C(=O)N[C@@H]([C@@H](C)O)C(=O)N[C@H](CCN)C(=O)N[C@@H](CCCCN)C(=O)N[C@@H](CCN)C(=O)N[C@@H](CCN)C(=O)N[C@H](C(=O)N[C@@H](Cc2ccc(O)cc2)C(=O)O)CSSC1(C)C [Example 9, Val-Pro(4,4F2)-Ile-Pen-Tyr-Thr-Asn-Arg-Dab-Thr-^DDab-Lys-Dab-Dab-Cys-Tyr] (H-V[Pro(4,4-F2)]I[Pen]YTNR[Dab]T[dDab]K[Dab][Dab]CY-OH; disulfide 4-15)
[1]
  Escherichia coli MCR-1 Af45 MIC: 0.0625 µg/mL
[2]
  Klebsiella pneumoniae SSI3010 MIC: 0.25 µg/mL
[3]
  Escherichia coli ATCC 25922 MIC: 0.125 µg/mL
[4]
  Hemolysis at 0.2 g/L: <1%
